Experimental data reported in patent US6972296B2, “Carboxylic acid derivatives that inhibit the binding of integrins to their receptors” (Encysive Pharmaceuticals Inc., priority 1999, dated 2005).

What follows are compounds tested against T1, α4β1 integrin (Homo sapiens, UniProt P05556+P13612) (assay: Adhesion of calcein-labeled Ramos cells to CS1 (fibronectin) peptide conjugated ovalbumin). Details: Table 2; Ramos cell adhesion to CS1 conjugated ovalbumin, 30 minutes at 37° C.
T1 construct: endogenous in cells; host or cells: Ramos cells
Format: cell-based
Procedure, shortened: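 Calcein AM-labelled Ramos cells (2.5×10^5/well) with compound, up to 100 μM, added to plates coated with CS1 peptide–ovalbumin (0.5 μg/ml) and blocked with 3% BSA. Binding buffer TBS pH 7.5 with 1 mM each MgCl2, CaCl2, MnCl2; 30 min, 37 °C. After washes, adherent cells lysed and read fluorometrically; […].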

T1 sequence (P13612 34-1032): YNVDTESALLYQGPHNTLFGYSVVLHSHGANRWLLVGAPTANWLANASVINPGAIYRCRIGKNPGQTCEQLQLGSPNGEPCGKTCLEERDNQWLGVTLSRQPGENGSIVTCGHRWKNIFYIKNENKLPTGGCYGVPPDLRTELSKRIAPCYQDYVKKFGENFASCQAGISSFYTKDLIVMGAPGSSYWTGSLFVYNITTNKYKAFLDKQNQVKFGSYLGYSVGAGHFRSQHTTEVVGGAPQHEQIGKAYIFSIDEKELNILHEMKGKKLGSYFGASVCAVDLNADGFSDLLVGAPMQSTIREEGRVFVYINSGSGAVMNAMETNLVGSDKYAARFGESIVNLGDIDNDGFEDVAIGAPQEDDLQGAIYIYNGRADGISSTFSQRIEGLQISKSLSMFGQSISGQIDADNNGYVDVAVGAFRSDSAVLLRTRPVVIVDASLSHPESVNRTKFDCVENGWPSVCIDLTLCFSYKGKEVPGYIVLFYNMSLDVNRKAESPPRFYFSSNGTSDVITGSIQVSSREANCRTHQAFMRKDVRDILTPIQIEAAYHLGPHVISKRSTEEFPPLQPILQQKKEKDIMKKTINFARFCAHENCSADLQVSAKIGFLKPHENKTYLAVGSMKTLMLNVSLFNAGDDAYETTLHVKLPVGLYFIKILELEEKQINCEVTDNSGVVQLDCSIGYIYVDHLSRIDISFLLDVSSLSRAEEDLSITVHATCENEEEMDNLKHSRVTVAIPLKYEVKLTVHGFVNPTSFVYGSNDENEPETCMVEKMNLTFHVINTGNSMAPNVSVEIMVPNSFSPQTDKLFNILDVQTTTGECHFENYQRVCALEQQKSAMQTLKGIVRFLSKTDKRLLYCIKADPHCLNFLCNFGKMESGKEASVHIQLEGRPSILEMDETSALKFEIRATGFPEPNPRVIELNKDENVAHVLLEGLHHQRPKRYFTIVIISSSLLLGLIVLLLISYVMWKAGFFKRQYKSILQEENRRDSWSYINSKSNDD
T1 sequence (P05556 21-798): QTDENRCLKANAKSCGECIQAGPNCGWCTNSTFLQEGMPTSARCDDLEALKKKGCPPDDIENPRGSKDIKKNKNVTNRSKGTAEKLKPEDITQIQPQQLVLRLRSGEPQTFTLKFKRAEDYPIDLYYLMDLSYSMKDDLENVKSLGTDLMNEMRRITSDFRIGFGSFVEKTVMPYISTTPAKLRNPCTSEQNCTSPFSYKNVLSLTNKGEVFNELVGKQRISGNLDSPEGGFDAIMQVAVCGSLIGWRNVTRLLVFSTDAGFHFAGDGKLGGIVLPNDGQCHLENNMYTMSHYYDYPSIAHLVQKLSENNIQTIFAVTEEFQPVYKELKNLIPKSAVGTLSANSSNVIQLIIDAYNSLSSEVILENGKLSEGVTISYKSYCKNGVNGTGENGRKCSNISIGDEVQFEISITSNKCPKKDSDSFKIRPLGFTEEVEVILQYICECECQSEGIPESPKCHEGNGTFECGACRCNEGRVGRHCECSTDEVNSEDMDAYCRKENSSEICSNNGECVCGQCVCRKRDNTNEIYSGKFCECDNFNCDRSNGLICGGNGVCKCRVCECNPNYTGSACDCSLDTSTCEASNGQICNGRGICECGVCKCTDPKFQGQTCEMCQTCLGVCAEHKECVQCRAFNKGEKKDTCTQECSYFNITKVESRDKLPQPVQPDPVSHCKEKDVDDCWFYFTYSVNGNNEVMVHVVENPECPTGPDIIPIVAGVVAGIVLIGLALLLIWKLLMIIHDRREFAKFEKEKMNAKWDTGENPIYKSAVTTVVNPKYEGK

Compound `O=C(O)C[C@H](NC(=O)N[C@H]1CCCCN(Cc2cccs2)C1=O)c1ccc2c(c1)OCO2` has an IC50 of 15 nM.

Same assay, conditions: Table 3; Ramos cell adhesion to CS1 conjugated ovalbumin, 30 minutes at 37° C.

First: COc1ccc([C@H](CC(=O)O)NC(=O)Nc2c(O)ccn(Cc3ccccc3Cl)c2=O)cc1 [(3S)-3-{[({1-[(2-chlorophenyl)methyl]-4-hydroxy-2-oxo-1,2-dihydro-3-pyridinyl}amino)carbonyl]amino}-3-[4-(methyloxy)phenyl]propanoic acid]
Second: O=C(O)CC(NC(=O)Nc1c(O)ccn(Cc2ccccc2Cl)c1=O)c1ccc(Cl)c(Cl)c1 (stereo not drawn)
The IC50 of the first is 8-fold lower: 5 nM for the first, 40 nM for the second.

Same assay, conditions: Table 4; Ramos cell adhesion to CS1 conjugated ovalbumin, 30 minutes at 37° C.

Going from `O=C(O)C[C@H](NC(=O)Nc1cccn(Cc2ccccc2Cl)c1=O)c1ccc2c(c1)CCC2` to `O=C(O)CC(NC(=O)Nc1cccn(Cc2ccccc2Cl)c1=O)c1ccc(Cl)c(Cl)c1` (stereo not drawn), the IC50 rises from 300 nM to 1000 nM (3.3-fold).

First: Cc1ccc([C@H](CC(=O)O)NC(=O)Nc2cccn(Cc3c(Cl)cccc3[N+](=O)[O-])c2=O)cc1
Second: Cc1ccc([C@H](CC(=O)O)NC(=O)Nc2cccn(Cc3cccc(Cl)c3Cl)c2=O)cc1
The IC50 of the first is 11-fold higher: 4000 nM for the first, 350 nM for the second. The second is the more potent here.

Compared with `Cc1ccc([C@H](CC(=O)O)NC(=O)Nc2cccn(Cc3ccccc3Br)c2=O)cc1`, `O=C(O)CC(NC(=O)Nc1cccn(Cc2ccccc2Cl)c1=O)c1cccc(Cl)c1` (stereo not drawn) is 20-fold higher in IC50: 50 nM for the first, 1000 nM for the second. The first is the more potent here.

Compared with `COc1cc([C@H](CC(=O)O)NC(=O)Nc2cccn(Cc3ccccc3Br)c2=O)cc(OC)c1OC`, `O=C(O)CC(NC(=O)Nc1c(O)ccn(Cc2ccccc2Cl)c1=O)c1ccc(Cl)c(Cl)c1` (stereo not drawn) is 2-fold lower in IC50: 80 nM for the first, 40 nM for the second. The second is the more potent here.

Same assay, conditions: Table 5; Ramos cell adhesion to CS1 conjugated ovalbumin; dose required to give 50% inhibition

Going from `CCc1cn(Cc2ccccc2Cl)c(=O)c(NC(=O)N[C@@H](CC(=O)O)c2ccc(C)cc2)c1O` [(3S)-3-[({[1-(2-chlorobenzyl)-5-ethyl-4-hydroxy-2-oxo-1,2-dihydropyridin-3-yl]amino}carbonyl)amino]-3-(4-methylphenyl)propanoic acid] to `Cc1cn(Cc2ccccc2Cl)c(=O)c(NC(=O)NC(CC(=O)O)c2ccc3ccccc3c2)c1O` (stereo not drawn), the IC50 rises from 10 nM to 30 nM (3-fold).

First: Cc1ccc([C@H](CC(=O)O)NC(=O)Nc2c(O)ccn(Cc3cc(C(F)(F)F)cc(C(F)(F)F)c3)c2=O)cc1
Second: Cc1ccc([C@H](CC(=O)O)NC(=O)Nc2c(O)ccn(Cc3cc(F)ccc3F)c2=O)cc1
The IC50 of the first is 20-fold higher: 300 nM for the first, 15 nM for the second. The second is the more potent here.

First: Cc1ccc([C@H](CC(=O)O)NC(=O)Nc2c(O)ccn(Cc3cc(S(C)(=O)=O)ccc3Cl)c2=O)cc1 [(3S)-3-{[({1-[2-chloro-5-(methylsulfonyl)benzyl]-4-hydroxy-2-oxo-1,2-dihydropyridin-3-yl}amino)carbonyl]amino}-3-(4-methylphenyl)propanoic acid]
Second: COc1cc(Cl)ccc1Cn1ccc(O)c(NC(=O)N[C@@H](CC(=O)O)c2ccc(C)cc2)c1=O
The IC50 of the first is 8.3-fold lower: 3 nM for the first, 25 nM for the second.

`Cc1ccc([C@H](CC(=O)O)NC(=O)Nc2c(O)ccn(Cc3ccc(S(=O)(=O)N(C)C)cc3)c2=O)cc1` and `Cc1ccc([C@H](CC(=O)O)NC(=O)Nc2c(O)ccn(Cc3ccccn3)c2=O)cc1` [(3S)-3-[({[4-hydroxy-2-oxo-1-(pyridin-2-ylmethyl)-1,2-dihydropyridin-3-yl]amino}carbonyl)amino]-3-(4-methylphenyl)propanoic acid] are within 1.5-fold of each other in IC50: 35 nM for the first, 45 nM for the second.

Going from `COc1cc([C@H](CC(=O)O)NC(=O)Nc2c(O)ccn(Cc3ccccc3Cl)c2=O)cc2c1OCO2` [(3S)-3-[({[1-(2-chlorobenzyl)-4-hydroxy-2-oxo-1,2-dihydropyridin-3-yl]amino}carbonyl)amino]-3-(7-methoxy-1,3-benzodioxol-5-yl)propanoic acid] to `COc1ccc([C@H](CC(=O)O)NC(=O)Nc2c(O)ccn(Cc3ccccc3Cl)c2=O)cc1OC` [(3S)-3-[({[1-(2-chlorobenzyl)-4-hydroxy-2-oxo-1,2-dihydropyridin-3-yl]amino}carbonyl)amino]-3-(3,4-dimethoxyphenyl)propanoic acid], the IC50 falls from 5 nM to 2 nM (2.5-fold). The second is the more potent here.

Going from `CCOc1cc([C@H](CC(=O)O)NC(=O)Nc2c(O)ccn(Cc3ccccc3Cl)c2=O)ccc1OC` [(3S)-3-[({[1-(2-chlorobenzyl)-4-hydroxy-2-oxo-1,2-dihydropyridin-3-yl]amino}carbonyl)amino]-3-(3-ethoxy-4-methoxyphenyl)propanoic acid] to `CCc1cccc([C@H](CC(=O)O)NC(=O)Nc2c(O)ccn(Cc3ccccc3Cl)c2=O)c1`, the IC50 rises from 2 nM to 15 nM (7.5-fold).

Compared with `COc1ccccc1Cn1cccc(NC(=O)N[C@@H](CC(=O)O)c2ccc(C)cc2)c1=O`, `CCCc1cn(Cc2ccc(Cl)cc2)c(=O)c(NC(=O)N[C@@H](CC(=O)O)c2ccc(OCC)c(OCC)c2)c1O` is 17-fold lower in IC50: 250 nM for the first, 15 nM for the second. The second is the more potent here.

Same assay, conditions: Table 6; Ramos cell adhesion to CS1 conjugated ovalbumin, 30 minutes at 37° C.

First: COc1cc(Cn2cc(C)c(O)c(NC(=O)N[C@@H](CC(=O)O)c3ccc(C)cc3)c2=O)cc(OC)c1
Second: Cc1ccc([C@H](CC(=O)O)NC(=O)Nc2c(O)c(C)cn(Cc3c(F)cccc3F)c2=O)cc1
The IC50 of the first is 2.8-fold higher: 70 nM for the first, 25 nM for the second.

Going from `COc1ccc2cc([C@H](CC(=O)O)NC(=O)Nc3c(O)ccn(Cc4ccccc4Cl)c3=O)ccc2c1` to `Cc1ccc([C@H](CC(=O)O)NC(=O)Nc2c(O)ccn(Cc3cccc(S(C)(=O)=O)c3)c2=O)cc1`, the IC50 rises from 15 nM to 25 nM (1.7-fold). The first is the more potent here.

Work on `CCOc1cccc([C@H](CC(=O)O)NC(=O)Nc2c(O)c(C)nn(Cc3ccccc3Cl)c2=O)c1` yielded an IC50 of 5 nM.

Same assay, conditions: Table 7; Ramos cell adhesion to CS1 conjugated ovalbumin; dose required to give 50% inhibition

First: CCc1ccc([C@H](CC(=O)O)NC(=O)Nc2c(O)c3c(n(Cc4ccccc4Cl)c2=O)CCC3)cc1
Second: O=C(O)C[C@H](NC(=O)Nc1c(O)c2c(n(Cc3ccccc3Cl)c1=O)CCC2)c1ccc(C(F)(F)F)cc1
The IC50 of the first is 2.2-fold lower: 8 nM for the first, 18 nM for the second.

Compared with `Cc1cccc(Cl)c1Cn1c2c(c(O)c(NC(=O)N[C@@H](CC(=O)O)c3ccc4[nH]ccc4c3)c1=O)CCC2` [(3S)-3-{[({1-[(2-chloro-6-methylphenyl)methyl]-4-hydroxy-2-oxo-2,5,6,7-tetrahydro-1H-cyclopenta[b]pyridin-3-yl}amino)carbonyl]amino}-3-(1H-indol-5-yl)propanoic acid], `O=C(O)C[C@H](NC(=O)Nc1c(O)c2c(n(Cc3ccccc3Cl)c1=O)CCC2)c1cccc(F)c1` is 8-fold higher in IC50: 2 nM for the first, 16 nM for the second.

`CCOc1cccc([C@H](CC(=O)O)NC(=O)Nc2c(O)c3c(n(Cc4c(Cl)cccc4OCCOC)c2=O)CCC3)c1` and `CCOc1cccc([C@H](CC(=O)O)NC(=O)Nc2c(O)c(C)nn(Cc3c(Cl)cccc3OCC)c2=O)c1` [(3S)-3-[({[2-(2-chloro-6-ethoxybenzyl)-5-hydroxy-6-methyl-3-oxo-2,3-dihydropyridazin-4-yl]amino}carbonyl)amino]-3-(3-ethoxyphenyl)propanoic acid] are within 1.5-fold of each other in IC50: 4 nM for the first, 3 nM for the second.

First: Cc1cn(Cc2ccccc2Cl)c(=O)c(NC(=O)N[C@@H](CC(=O)O)c2ccc3c(c2)CCO3)c1O
Second: CCN(CC)c1cccc([C@H](CC(=O)O)NC(=O)Nc2c(O)c(C)cn(Cc3ccccc3Cl)c2=O)c1 [(3S)-3-[({[1-(2-chlorobenzyl)-4-hydroxy-5-methyl-2-oxo-1,2-dihydropyridin-3-yl]amino}carbonyl)amino]-3-[3-(diethylamino)phenyl]propanoic acid]
The IC50 of the first is 3-fold higher: 6 nM for the first, 2 nM for the second.

Going from `CCCc1cn(Cc2c(Cl)cccc2OCC)c(=O)c(NC(=O)N[C@@H](CC(=O)O)c2ccccc2)c1O` to `CCOc1ccc(Cl)c(Cn2cc(C)c(O)c(NC(=O)N[C@@H](CC(=O)O)c3ccc(C)cc3)c2=O)c1`, the IC50 falls from 23 nM to 4 nM (5.8-fold). The second is the more potent here.

First: Cc1cn(Cc2ccccc2Cl)c(=O)c(NC(=O)N[C@H](c2ccccc2)c2nnn[nH]2)c1O
Second: COc1ccc(Cl)c(Cn2cc(C)c(O)c(NC(=O)N[C@@H](CC(=O)O)c3ccc(C)cc3)c2=O)c1 [(3S)-3-[({[1-(2-chloro-5-methoxybenzyl)-4-hydroxy-5-methyl-2-oxo-1,2-dihydropyridin-3-yl]amino}carbonyl)amino]-3-(4-methylphenyl)propanoic acid]
The IC50 of the first is higher: over 10000 nM for the first, 3 nM for the second. The second is the more potent here.
